{"source": "patent US8026218B2", "about": "“Bifunctional analgesic compounds for opioid receptor agonists and neurokinin-1 receptor antagonists” (The University of Arizona, priority 2006, dated 2011)", "key": {"[1]": {"molecular_target": "T1, rat NK1 (rNK1) receptor (Rattus norvegicus, UniProt P14600)", "T1 construct": "expressed in transfected cells; host or cells: CHO (rNK-1/CHO cell line from Dr. James Krause)", "T1 sequence (P14600 whole entry)": "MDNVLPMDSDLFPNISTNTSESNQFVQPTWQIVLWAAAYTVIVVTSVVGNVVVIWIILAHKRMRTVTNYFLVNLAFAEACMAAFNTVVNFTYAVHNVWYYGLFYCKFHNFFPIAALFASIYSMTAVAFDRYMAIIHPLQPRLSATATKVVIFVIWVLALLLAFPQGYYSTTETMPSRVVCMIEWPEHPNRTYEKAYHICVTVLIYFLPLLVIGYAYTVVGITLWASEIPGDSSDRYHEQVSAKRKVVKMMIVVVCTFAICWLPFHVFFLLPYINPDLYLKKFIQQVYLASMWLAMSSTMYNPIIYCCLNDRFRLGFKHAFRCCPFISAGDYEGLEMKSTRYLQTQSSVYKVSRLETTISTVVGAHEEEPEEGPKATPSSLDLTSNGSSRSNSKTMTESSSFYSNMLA", "assay": "Radioligand competition binding, [3H]substance P, rNK1/CHO membranes"}, "[2]": {"molecular_target": "T2, rat μ opioid receptors (rMOR) (Rattus norvegicus, UniProt P33535)", "T2 construct": "expressed in transfected cells; host or cells: HN9.10 neuroblastoma cell line, pCDNA3, neomycin-selected clones", "T2 sequence (P33535 whole entry)": "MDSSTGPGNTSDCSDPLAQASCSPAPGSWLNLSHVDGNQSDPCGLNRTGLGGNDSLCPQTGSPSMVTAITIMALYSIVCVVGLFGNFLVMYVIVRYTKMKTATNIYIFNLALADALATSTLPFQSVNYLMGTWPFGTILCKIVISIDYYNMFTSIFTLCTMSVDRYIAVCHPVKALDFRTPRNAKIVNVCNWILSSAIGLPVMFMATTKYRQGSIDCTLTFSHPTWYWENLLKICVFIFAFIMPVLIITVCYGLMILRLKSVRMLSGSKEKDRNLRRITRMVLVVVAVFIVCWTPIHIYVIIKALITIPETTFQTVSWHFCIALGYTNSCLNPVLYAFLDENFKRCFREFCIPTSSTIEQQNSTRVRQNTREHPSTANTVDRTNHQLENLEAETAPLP", "assay": "biochemical", "assay_type": "biochemical"}, "[3]": {"assay": "In vitro stability in rat plasma at 37° C.", "assay_type": "in vitro ADME", "details": "for half-life at 50 μg/mL: rat, rat plasma, FIG. 47, read-out: T1/2 in rat plasma; for stability in the rat plasma: words", "description": "The derivative compounds were tested for their metabolite stability. The compounds were incubated in rat plasma at 37° C., and aliquots were withdrawn at various time points and analyzed by HPLC to determine the concentration of remaining compound derivatives (FIGS. 15-16, 36, and 47-48).\nIn Vitro Stability of compound derivatives in Rat Plasm (Yamamoto, 2007, J. Am. Chem. Soc. submitted). Stock solution of compounds (50 mg/mL in DMSO) were diluted 1000-fold into rat plasma (Lot 24927, Pel-Freez Biologicals, Rogers, Ak.) to result in an incubation concentration of 50 μg/mL. All samples were incubated at 37° C. for 6 h, and 200 μL of aliquots were withdrawn at 1 h, 2 h, 4 h and 6 h. […] The samples were run in triplicate. Discussion."}, "[4]": {"molecular_target": "T3, human NK1 receptor (hNK1) (Homo sapiens, UniProt P25103)", "T3 construct": "expressed in transfected cells", "T3 sequence (P25103 whole entry)": "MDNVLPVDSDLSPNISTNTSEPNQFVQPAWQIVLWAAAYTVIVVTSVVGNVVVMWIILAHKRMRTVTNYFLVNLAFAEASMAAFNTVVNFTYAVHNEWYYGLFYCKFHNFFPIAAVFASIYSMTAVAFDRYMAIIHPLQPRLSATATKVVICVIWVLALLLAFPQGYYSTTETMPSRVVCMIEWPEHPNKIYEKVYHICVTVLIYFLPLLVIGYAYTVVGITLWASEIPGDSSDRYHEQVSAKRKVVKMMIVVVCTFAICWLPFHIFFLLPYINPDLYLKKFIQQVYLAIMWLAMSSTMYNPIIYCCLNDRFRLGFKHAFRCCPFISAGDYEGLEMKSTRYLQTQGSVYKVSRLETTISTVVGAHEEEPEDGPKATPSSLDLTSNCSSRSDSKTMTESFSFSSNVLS", "assay": "Radioligand competition binding, [3H]-Substance P, hNK1"}, "[5]": {"molecular_target": "T4, δ opioid receptors (MVD) (Mus musculus, UniProt P32300)", "T4 construct": "from tissue; host or cells: mouse (ICR) isolated vas deferens", "T4 sequence (P32300 whole entry)": "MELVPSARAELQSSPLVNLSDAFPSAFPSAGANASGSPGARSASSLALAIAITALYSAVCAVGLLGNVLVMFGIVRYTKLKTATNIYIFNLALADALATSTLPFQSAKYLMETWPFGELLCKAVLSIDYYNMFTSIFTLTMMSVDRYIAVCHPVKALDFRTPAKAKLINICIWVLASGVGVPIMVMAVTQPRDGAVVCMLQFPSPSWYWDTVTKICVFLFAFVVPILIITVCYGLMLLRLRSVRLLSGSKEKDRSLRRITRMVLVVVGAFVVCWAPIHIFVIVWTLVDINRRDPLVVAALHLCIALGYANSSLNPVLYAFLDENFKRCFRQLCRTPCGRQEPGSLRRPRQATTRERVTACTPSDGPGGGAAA", "assay": "Mouse isolated vas deferens (MVD) assay, opioid agonist"}, "[6]": {"molecular_target": "T5, Substance P receptors (guinea pig NK1) (Cavia porcellus, UniProt P30547)", "T5 construct": "from tissue; host or cells: guinea pig (Hartley) ileum LMMP, 1 μM naloxone present", "T5 sequence (P30547 whole entry)": "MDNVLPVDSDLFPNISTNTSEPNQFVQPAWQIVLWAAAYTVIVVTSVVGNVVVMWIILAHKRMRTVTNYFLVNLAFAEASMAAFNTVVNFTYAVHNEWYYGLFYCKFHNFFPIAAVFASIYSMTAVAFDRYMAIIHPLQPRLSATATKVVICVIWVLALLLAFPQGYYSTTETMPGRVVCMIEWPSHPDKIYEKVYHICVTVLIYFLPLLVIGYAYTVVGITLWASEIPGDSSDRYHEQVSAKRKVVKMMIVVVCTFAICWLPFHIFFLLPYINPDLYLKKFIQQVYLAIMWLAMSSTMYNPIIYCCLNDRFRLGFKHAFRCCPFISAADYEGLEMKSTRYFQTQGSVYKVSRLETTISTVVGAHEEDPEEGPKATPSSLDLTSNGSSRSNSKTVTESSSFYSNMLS", "assay": "Guinea pig isolated ileum (GPI) assay with substance P stimulation in presence of 1 μM naloxone", "details": "Table 39; at 30 nM"}, "[7]": {"molecular_target": "T2, rat μ opioid receptors (rMOR)", "assay": "Radioligand competition binding, [3H]DAMGO, rMOR membranes"}, "[8]": {"details": "Table 39, read-out: GTP binding rMOR Emax"}}, "note": "Like-named read-outs stand apart in the source and are kept apart here. Bridge positions count the residues as written; N and C are the ends. Square brackets hold non-standard residues; d marks the D form. Peptide text beside a SMILES is read from it. * marks the point of attachment. NH(3,5-(CF3)2-benzyl) = FC(F)(F)c1cc(CN*)cc(C(F)(F)F)c1; X1 = OC[C@H]1OC(*)[C@H](O)[C@@H](O)[C@@H]1O; Dmt = Cc1cc(O)cc(C)c1C[C@H](N)C(=O)O; dPen = CC(C)(S)[C@@H](N)C(=O)O; Nle = CCCC[C@H](N)C(=O)O", "data": [{"smiles": "CCCC[C@@H]1NC(=O)[C@H](Cc2ccccc2)NC(=O)CNC(=O)[C@H](NC(=O)[C@@H](N)Cc2ccc(O)cc2)C(C)(C)SSC(C)(C)[C@H](C(=O)N[C@@H](Cc2c[nH]c3ccccc23)C(=O)NCc2cc(C(F)(F)F)cc(C(F)(F)F)c2)NC(=O)[C@@H]2CCCN2C1=O", "note": "[TY048] (H-Y[dPen]GF[Nle]P[dPen]W-{NH(3,5-(CF3)2-benzyl)}; disulfide 2-7; N-terminus assumed)", "values": [{"measurement": "Ki", "setting": "[1]; Table 23, read-out: Affinity rNK1 (Ki; nM)", "value": 26, "unit": "nM"}, {"measurement": "Emax", "setting": "[2]; [8]", "value": 29, "unit": "%"}, {"measurement": "half-life at 50 μg/mL", "setting": "[3]", "value": "> 24", "unit": "h"}]}, {"smiles": "CC(C)C[C@H](NC(=O)[C@@H]1CCCN1C(=O)[C@@H]1NC(=O)[C@H](Cc2ccccc2)NC(=O)CNC(=O)[C@H](NC(=O)[C@@H](N)Cc2ccc(O)cc2)C(C)(C)SSC1(C)C)C(=O)N[C@@H](Cc1c[nH]c2ccccc12)C(=O)NCc1cc(C(F)(F)F)cc(C(F)(F)F)c1", "note": "[TY049]", "values": [{"measurement": "Ki", "setting": "[1]; Affinity rNK1 (Ki; nM), Table 23", "value": 4.54, "unit": "nM"}, {"measurement": "Ki", "setting": "[4]", "value": 0.18, "unit": "nM"}, {"measurement": "Emax", "setting": "[2]; read-out: GTP binding rMOR Emax", "value": 25, "unit": "%"}, {"measurement": "half-life at 50 μg/mL", "setting": "[3]", "value": "> 24", "unit": "h"}]}, {"smiles": "CCCC[C@H](NC(=O)[C@H](Cc1ccccc1)NC(=O)CNC(=O)[C@@H](C)NC(=O)[C@@H](N)Cc1ccc(O)cc1)C(=O)N1CCC[C@H]1C(=O)N[C@@H](CC(C)C)C(=O)N[C@@H](COC1O[C@H](CO)[C@@H](O)[C@H](O)[C@H]1O)C(=O)N[C@@H](Cc1c[nH]c2ccccc12)C(=O)NCc1cc(C(F)(F)F)cc(C(F)(F)F)c1", "note": "(stereo partly drawn) [TY055]", "values": [{"measurement": "Ki", "setting": "[4]", "value": 0.052, "unit": "nM"}, {"measurement": "IC50", "setting": "[5]", "value": 17.4, "unit": "nM"}, {"measurement": "stability in the rat plasma", "setting": "[3]", "value": "stable"}, {"measurement": "GPI/LMMP SP Agonist (IC50; nM)", "setting": "[6]", "value": "none"}, {"measurement": "Ki", "setting": "[7]", "value": 30, "unit": "nM"}]}, {"smiles": "CCCC[C@H](NC(=O)[C@H](Cc1ccccc1)NC(=O)CNC(=O)[C@@H](C)NC(=O)[C@@H](N)Cc1c(C)cc(O)cc1C)C(=O)N1CCC[C@H]1C(=O)N[C@@H](COC1O[C@H](CO)[C@@H](O)[C@H](O)[C@H]1O)C(=O)N[C@@H](Cc1c[nH]c2ccccc12)C(=O)NCc1cc(C(F)(F)F)cc(C(F)(F)F)c1", "note": "(stereo partly drawn) [TY056] (H-[Dmt][dA]GF[Nle]PS(X1)W-{NH(3,5-(CF3)2-benzyl)}; N-terminus assumed)", "values": [{"measurement": "Ki", "setting": "[1]; Affinity rNK1 (Ki; nM), Table 25", "value": 10, "unit": "nM"}, {"measurement": "Ki", "setting": "[4]", "value": 0.0017, "unit": "nM"}, {"measurement": "EC50", "setting": "[2]; Table 25, read-out: GTP binding rMOR EC50", "value": 44.9, "unit": "nM"}, {"measurement": "Emax", "setting": "[2]; Table 25, read-out: GTP binding rMOR Emax (%)", "value": 66, "unit": "%"}, {"measurement": "Emax", "setting": "[2]; [8]", "value": 66, "unit": "%"}, {"measurement": "IC50", "setting": "[5]", "value": 3.62, "unit": "nM"}, {"measurement": "stability in the rat plasma", "setting": "[3]", "value": "stable"}, {"measurement": "GPI/LMMP SP Agonist (IC50; nM)", "setting": "[6]", "value": "none"}, {"measurement": "Ki", "setting": "[7]", "value": 1.9, "unit": "nM"}]}]}
